In patent US11629171B2, “Beta-hairpin peptidomimetics” (POLYPHOR AG, priority 2017, dated 2023):
≈ marks a conversion by molar mass, not a printed value. Where a SMILES comes first, the peptide text is derived from it. Bridges are numbered along the chain shown (N, C = ends). Roman numbers before positions name the chains, in order. [ ]: non-standard residue; d: D form. NMeDab = CN[C@@H](CCN)C(=O)O; dDab = NCC[C@@H](N)C(=O)O; Dab = NCC[C@H](N)C(=O)O; Abu = CC[C@H](N)C(=O)O; Dap = NC[C@H](N)C(=O)O

Experiments:
male ICR mice = experiment: Tolerability in a mouse model (Maximum Tolerated Dose assay); type: in vivo; conditions: 2 × 40 mg/kg s.c. at a 12-hr interval, groups of 3
In short: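 Peptides in 0.9% NaCl (pH 6.5-7.6) given s.c. at 30 or 40 mg/kg, twice 12 h apart, to groups of 3 male ICR mice (23±3 g). Acute toxic signs (mortality, convulsions, tremors, sedation) and autonomic effects (diarrhea, salivation, piloerection) observed for 30 min after each dose.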

[1] = test system: human red blood cells (hRBC); experiment: Hemolysis; type: cell-based; conditions: red cells of human, 1 h, 200
In short: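 Percent lysis of human red cells was derived from OD540 of the supernatant, referenced to 2% Triton X-100, after a 1 h, 37° C incubation of 20% (v/v) cells with 200 μg/mL peptide.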

[2] = test system: Klebsiella pneumoniae SSI #3010; type: cell-based; conditions: SSI #3010
In short: (§1)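 Standard CLSI microdilution testing: bacterial suspensions standardized against 0.5 McFarland to about 10^6 CFU/mL in MH-II broth meet serially halved peptide concentrations in broth containing 0.002% polysorbate 80; incubation lasts 18-20 h at 35° C before the MIC is scored.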

[3] = test system: Acinetobacter baumannii 872842; type: cell-based; conditions: 872842
In short: as §1

[4] = test system: Pseudomonas aeruginosa ATCC 27853; type: cell-based; conditions: ATCC 27853
In short: as §1

Escherichia coli 926415 = type: cell-based; conditions: 926415
In short: as §1

[5] = test system: Enterobacter cloacae 848840; type: cell-based; conditions: 848840
In short: as §1

[6] = test system: Klebsiella pneumoniae 968733; type: cell-based; conditions: 968733
In short: as §1

[7] = test system: Acinetobacter baumannii DSM 30008; type: cell-based; conditions: DSM 30008
In short: as §1

[8] = test system: Escherichia coli ATCC 25922; type: cell-based; conditions: ATCC 25922
In short: as §1

| SMILES | Mortality and dose (male ICR mice) | Hemolysis at 200 μg/mL [1] [%] | Klebsiella pneumoniae SSI #3010 MIC [2] [µg/mL] | MIC [3] [µg/mL] | Pseudomonas aeruginosa ATCC 27853 MIC [4] [µg/mL] | MIC (Escherichia coli 926415) [µg/mL] | MIC [5] [µg/mL] | MIC [6] [µg/mL] | Acinetobacter baumannii DSM 30008 MIC [7] [µg/mL] | Escherichia coli ATCC 25922 MIC [8] [µg/mL] |
| --- | --- | --- | --- | --- | --- | --- | --- | --- | --- | --- |
| CC(=O)N[C@H](C(=O)N[C@H]1CSSC[C@@H](C(=O)N[C@@H](CO)C(N)=O)NC(=O)[C@H](C(C)C)NC(=O)[C@H](CO)NC(=O)[C@H](Cc2c[nH]c3ccccc23)NC(=O)[C@H](CO)NC(=O)[C@@H](CCN)NC(=O)[C@H](CCC(=O)N[C@H](CCN)C(=O)N[C@H](C(=O)N[C@@H](CN)C(=O)N[C@H]2CCNC(=O)[C@H]([C@@H](C)O)NC(=O)[C@H](CCN)NC(=O)[C@H](CCN)NC(=O)[C@H](CC(C)C)NC(=O)[C@@H](CC(C)C)NC(=O)[C@H](CCN)NC2=O)[C@@H](C)O)NC(=O)[C@H](CCN)NC(=O)[C@H](Cc2ccc(O)cc2)NC1=O)C(C)C [Ex. 310] (I: Ac-VCY[Dab]E[dDab]SWSVCS-NH2 / II: [dDab]T[Dap][Dab][Dab][dL]L[Dab][Dab]T; disulfide I:2-I:11; amide I:5-II:N; lactam II:4-II:C) | 0/3 died at 2 × 40 mg/kg | <1 | 0.0625 | 0.0625 (≈ 0.0261 µM) | 0.125 | 0.0625 (≈ 0.0261 µM) | 0.0625 (≈ 0.0261 µM) | 0.0625 (≈ 0.0261 µM) | 0.0625 | 0.03125 |
| CC(=O)N[C@H](C(=O)N[C@H]1CSSC[C@@H](C(=O)N[C@@H](CO)C(N)=O)NC(=O)[C@H](C(C)C)NC(=O)[C@H](CO)NC(=O)[C@H](Cc2c[nH]c3ccccc23)NC(=O)[C@H](CO)NC(=O)[C@@H](CCN)NC(=O)[C@H](CCC(=O)N(C)[C@@H](CCN)C(=O)N[C@H](C(=O)N[C@@H](CN)C(=O)N[C@H]2CCNC(=O)[C@H]([C@@H](C)O)NC(=O)[C@H](CCN)NC(=O)[C@H](CCN)NC(=O)[C@H](CC(C)C)NC(=O)[C@@H](CC(C)C)NC(=O)[C@H](CCN)NC2=O)[C@@H](C)O)NC(=O)[C@H](CCN)NC(=O)[C@H](Cc2ccc(O)cc2)NC1=O)C(C)C [Ex. 311] (I: Ac-VCY[Dab]E[dDab]SWSVCS-NH2 / II: [NMeDab]T[Dap][Dab][Dab][dL]L[Dab][Dab]T; disulfide I:2-I:11; amide I:5-II:N; lactam II:4-II:C) | 0/3 died at 2 × 40 mg/kg | <1 | 0.0625 | 0.125 (≈ 0.0518 µM) | 0.25 | 0.25 (≈ 0.104 µM) | 0.125 (≈ 0.0518 µM) | 0.125 (≈ 0.0518 µM) | 0.0625 | 0.0625 |
| CC(=O)N[C@H](C(=O)N[C@H]1CSSC[C@@H](C(=O)N[C@@H](CO)C(N)=O)NC(=O)[C@H](C(C)C)NC(=O)[C@H](CO)NC(=O)[C@H](Cc2c[nH]c3ccccc23)NC(=O)[C@H](CO)NC(=O)[C@@H](CCN)NC(=O)[C@H](CCC(=O)N[C@@H](CCN)C(=O)N[C@H](C(=O)N[C@@H](CN)C(=O)N[C@H]2CCNC(=O)[C@H]([C@@H](C)O)NC(=O)[C@H](CCN)NC(=O)[C@H](CCN)NC(=O)[C@H]([C@@H](C)O)NC(=O)[C@@H](CC(C)C)NC(=O)[C@H](CCN)NC2=O)[C@@H](C)O)NC(=O)[C@H](CCN)NC(=O)[C@H](Cc2ccc(O)cc2)NC1=O)C(C)C [Ex. 331] (I: Ac-VCY[Dab]E[dDab]SWSVCS-NH2 / II: [Dab]T[Dap][Dab][Dab][dL]T[Dab][Dab]T; disulfide I:2-I:11; amide I:5-II:N; lactam II:4-II:C) | 0/3 died at 2 × 40 mg/kg | <1 | 0.0625 | 0.25 (≈ 0.105 µM) | 0.125 | 0.5 (≈ 0.209 µM) | 0.25 (≈ 0.105 µM) | 0.5 (≈ 0.209 µM) | 0.125 | 0.0625 |
| CC[C@@H]1NC(=O)[C@@H](CC(C)C)NC(=O)[C@H](CCN)NC(=O)[C@@H](NC(=O)[C@H](CCN)NC(=O)[C@@H](NC(=O)[C@H](CCN)NC(=O)CC[C@@H]2NC(=O)[C@H](CCN)NC(=O)[C@H](Cc3ccc(O)cc3)NC(=O)[C@@H](NC(=O)[C@@H](NC(C)=O)C(C)C)CSSC[C@@H](C(=O)N[C@@H](CO)C(N)=O)NC(=O)[C@H](C(C)C)NC(=O)[C@H](CO)NC(=O)[C@H](Cc3c[nH]c4ccccc34)NC(=O)[C@H](CO)NC(=O)[C@@H](CCN)NC2=O)[C@@H](C)O)CCNC(=O)[C@H]([C@@H](C)O)NC(=O)[C@H](CCN)NC(=O)[C@H](CCN)NC1=O [Ex. 332] (I: Ac-VCY[Dab]E[dDab]SWSVCS-NH2 / II: [Dab]T[Dab][Dab][Dab][dL][Abu][Dab][Dab]T; disulfide I:2-I:11; amide I:5-II:N; lactam II:4-II:C) | 0/3 died at 2 × 40 mg/kg | 2 | 0.0625 | 0.25 (≈ 0.105 µM) | 0.25 | 0.25 (≈ 0.105 µM) | 0.125 (≈ 0.0524 µM) | 0.5 (≈ 0.21 µM) | 0.0625 | 0.03125 |
| CC(=O)N[C@H](C(=O)N[C@H]1CSSC[C@@H](C(=O)N[C@@H](CO)C(N)=O)NC(=O)[C@H](C(C)C)NC(=O)[C@H](CO)NC(=O)[C@H](Cc2c[nH]c3ccccc23)NC(=O)[C@H](CO)NC(=O)[C@@H](CCN)NC(=O)[C@H](CCC(=O)N[C@@H](CCN)C(=O)N[C@H](C(=O)N[C@@H](CCN)C(=O)N[C@H]2CCNC(=O)[C@H]([C@@H](C)O)NC(=O)[C@H](CCN)NC(=O)[C@H](CCN)NC(=O)[C@H]([C@@H](C)O)NC(=O)[C@@H](CC(C)C)NC(=O)[C@H](CCN)NC2=O)[C@@H](C)O)NC(=O)[C@H](CCN)NC(=O)[C@H](Cc2ccc(O)cc2)NC1=O)C(C)C [Ex. 333] (I: Ac-VCY[Dab]E[dDab]SWSVCS-NH2 / II: [Dab]T[Dab][Dab][Dab][dL]T[Dab][Dab]T; disulfide I:2-I:11; amide I:5-II:N; lactam II:4-II:C) | 0/3 died at 2 × 40 mg/kg | 2 | 0.0625 | 0.5 (≈ 0.208 µM) | 0.25 | 0.5 (≈ 0.208 µM) | 0.25 (≈ 0.104 µM) | 1 (≈ 0.417 µM) | 0.125 | 0.0625 |
| CC(=O)N[C@H](C(=O)N[C@H]1CSSC[C@@H](C(=O)N[C@@H](CO)C(N)=O)NC(=O)[C@H](C(C)C)NC(=O)[C@H](CO)NC(=O)[C@H](Cc2c[nH]c3ccccc23)NC(=O)[C@H](CO)NC(=O)[C@@H](CCN)NC(=O)[C@H](CCC(=O)N[C@@H](CCN)C(=O)N[C@H](C(=O)N[C@@H](CCN)C(=O)N[C@H]2CCNC(=O)[C@H]([C@@H](C)O)NC(=O)[C@H](CCN)NC(=O)[C@H](CCN)NC(=O)[C@H](CC(C)C)NC(=O)[C@@H](CC(C)C)NC(=O)[C@H](CCN)NC2=O)[C@@H](C)O)NC(=O)[C@H](CCN)NC(=O)[C@H](Cc2ccc(O)cc2)NC1=O)C(C)C [Ex. 334] (I: Ac-VCY[Dab]E[dDab]SWSVCS-NH2 / II: [Dab]T[Dab][Dab][Dab][dL]L[Dab][Dab]T; disulfide I:2-I:11; amide I:5-II:N; lactam II:4-II:C) | 0/3 died at 2 × 40 mg/kg | <1 | 0.0625 | 0.125 (≈ 0.0518 µM) | 0.125 | 0.25 (≈ 0.104 µM) | 0.125 (≈ 0.0518 µM) | 0.25 (≈ 0.104 µM) | 0.03125 | 0.03125 |
| CC(=O)N[C@H](C(=O)N[C@H]1CSSC[C@@H](C(=O)N[C@@H](CO)C(N)=O)NC(=O)[C@H](C(C)C)NC(=O)CNC(=O)[C@H](Cc2c[nH]c3ccccc23)NC(=O)[C@H](CO)NC(=O)[C@@H](CCN)NC(=O)[C@H](CCC(=O)N[C@@H](CCN)C(=O)N[C@H](C(=O)N[C@@H](CN)C(=O)N[C@H]2CCNC(=O)[C@H]([C@@H](C)O)NC(=O)[C@H](CCN)NC(=O)[C@H](CCN)NC(=O)[C@H](CC(C)C)NC(=O)[C@@H](CC(C)C)NC(=O)[C@H](CCN)NC2=O)[C@@H](C)O)NC(=O)[C@H](CCN)NC(=O)[C@H](Cc2ccc(O)cc2)NC1=O)C(C)C [Ex. 335] (I: Ac-VCY[Dab]E[dDab]SWGVCS-NH2 / II: [Dab]T[Dap][Dab][Dab][dL]L[Dab][Dab]T; disulfide I:2-I:11; amide I:5-II:N; lactam II:4-II:C) | 0/3 died at 2 × 40 mg/kg | <1 | 0.0625 | 0.25 (≈ 0.106 µM) | 0.125 | 0.25 (≈ 0.106 µM) | 0.25 (≈ 0.106 µM) | 0.5 (≈ 0.211 µM) | 0.0625 | 0.0625 |
